Patent publication EP4644391A1, “NOVEL PHENYLQUINOLONE COMPOUND HAVING ANTIBACTERIAL AND ANTICANCER FUNCTIONS, AND PREPARATION THEREOF” (Alphamol Science Ltd (Shanghai), priority 2022, dated 2024)
In brackets after ≈: the same amount, converted by molar mass. Read-outs that look alike come from different tables or passages of the source.

How the values were obtained:
[1] = test system: A. baumannii ATCC 17978; assay: In vitro antibacterial activity assay (MIC, broth dilution); assay type: cell-based; conditions: Acinetobacter baumannii, ATCC17978; Table 2; 37°C, 16 hours; read-out: G- bacteria MIC A. baumannii ATCC 17978
From the text: (§1) The method used to indicate the activity of the compounds in this example is to record the minimum inhibitory concentration (MIC) of the compounds against bacteria. The specific experimental method is as follows: • 1. The bacterial liquid cultured from a single colony was taken, and diluted into autoclaved CAMHB broth in a ratio of 1:1000, and mixed well. • 2. The prepared drug solution was filtered through a sterile 0.22µm syringe filter and placed in a sterile EP tube for later use. • 3. A 96-well plate was taken, and 20µL of drug solution (400µg/mL) was added to each well in the first column of the 96-well plate. Then, 180µL of diluted bacterial liquid was added and mixed well (Perform 3 replicate rows for each drug). The same process was performed for the hydrochloride drug. • 4. 100 µL of diluted bacterial liquid was added to each well in the remaining 11 columns of the 96-well plate. Drugs are the same as above. • 5. Serial dilution: 100µL of liquid was taken from the first column to the second column, mixed well, then 100µL of liquid was taken from the second column to the third column, mixed well, and so on, sequentially diluting down to the last column (column 12). After mixing column 12 well, 100µL of liquid thereof was discarded. The drug concentration in each well was decreased by two-fold serially (the concentration in the first well is 40µg/mL). • 6. Blank CAMHB broth without added bacteria liquid was added to 3 blank wells in the 96-well plate, as negative control. • 7. The diluted bacterial liquid was added to 3 blank wells in the 96-well plate, as positive control. • 8. Incubated at 37°C for 16 hours. • 9. Results reading: the minimum inhibitory concentration is the minimum drug concentration at which no bacterial growth is visible to the naked eye and without turbidity.

[2] = test system: E. coli ATCC 25922; assay: as above; assay type: cell-based; conditions: Escherichia coli, ATCC25922
From the text: as §1

[3] = test system: E. feacium ATCC 700221; assay: as above; assay type: cell-based; conditions: Table 1; 37°C, 16 hours; read-out: G+ bacteria MIC E. feacium ATCC 700221
From the text: as §1

[4] = test system: P.aeruginosa ATCC 27853; assay: as above; assay type: cell-based; conditions: Pseudomonas aeruginosa, ATCC27853; Table 2; 37°C, 16 hours; read-out: G- bacteria MIC P.aeruginosa ATCC 27853
From the text: as §1

[5] = test system: S. aureus ATCC 43300; assay: as above; assay type: cell-based; conditions: Staphylococcus aureus, ATCC43300
From the text: as §1

[6] = test system: Staphylococcus aureus ATCC43300; assay: Systemic blood infection animal model; assay type: in vivo, mice; conditions: for number of colonies of organs (liver and kidney), antibacterial effect: 4 mg/kg, oral gavage 3 times a day for 7 days (positive drug given as ciprofloxacin hydrochloride)
Method: Mice were administered by oral gavage with the drug solvent for the model group and the blank group. • (5) 8 h after the last administration, mice were euthanized by cervical dislocation, disinfected with 75% alcohol, and then necropsied under sterile conditions. The kidneys and livers were harvested, observed and photographed, and the weight was recorded. • (6) The kidneys and livers were placed in a sterile glass grinder and sterile PBS in a volume ten times the weight of the organs was added and grinded. The grinding solutions were taken out, 10-fold serially diluted, smeared to a TSA solid culture medium, and incubated at 37°C for 16 hours, then the colonies were counted. The number of colonies of the organs was calculated to evaluate the therapeutic effect.

[7] = test system: methicillin-resistant Staphylococcus aureus; assay type: in vivo, Kunming mice; conditions: for reduction of necrosis area compared with the control group: 4 consecutive days, measured on 5th day
Method: Kunming mice (20±2 g) were anesthetized with chloral hydrate and shaved, and then 50 µL of 4×10^7 CFU/mL of methicillin-resistant Staphylococcus aureus was subcutaneously injected. One day later, 100 µL of 0.02, 2 and 200 mg/kg of Example 29 were subcutaneously injected respectively, and 100 µL of normal saline was injected for the control group. The drug was administered for consecutive 4 days, and mice were euthanized on the 5th day, and the area of abscess was measured.

[8] = Table 2, 37°C, 16 hours, read-out: G- bacteria MIC E. coli ATCC 25922
[9] = Table 1, 37°C, 16 hours, read-out: G+ bacteria MIC S. aureus ATCC 43300

| SMILES | MIC [1] | MIC [2, 8] | MIC [3] | MIC [4] | MIC [5, 9] | number of colonies of organs (liver and kidney), antibacterial effect [6] | MIC ([2]; Table 3, read-out: E. coli ATCC 25922 MIC) | MIC ([5]; Table 3, read-out: S. aureus ATCC 43300 MIC) | reduction of necrosis area compared with the control group ([7]; 0.02 mg/kg subcutaneous) | reduction of necrosis area compared with the control group ([7]; 2 mg/kg subcutaneous) | antibacterial effect ([7]; concentrations 4 µg/mL and 400 µg/mL (corresponding to 0.02 mg/kg, 200 mg/kg)) | observation at the subcutaneous administration site ([7]; mouse, in vivo, sc, 200 mg/kg) | number of colonies of organs (liver and kidney) versus control group ([6]; 1 mg/kg, oral gavage 3 times a day for 7 days) | antibacterial effect in the liver and kidney (number of colonies) compared with ciprofloxacin ([6]; oral gavage 3 times a day for 7 days, Figure 4) |
| --- | --- | --- | --- | --- | --- | --- | --- | --- | --- | --- | --- | --- | --- | --- |
| O=C(O)c1cn(C2CC2)c2cc(N3CCNCC3)c(F)cc2c1=O [Ciprofloxacin] | 0.1 to 1 µg/mL (≈ 0.302 to 3.02 µM) | 0.1 to 1 µg/mL (≈ 0.302 to 3.02 µM) | > 8 µg/mL | 0.1 to 1 µg/mL (≈ 0.302 to 3.02 µM) | 0.1 to 1 µg/mL (≈ 0.302 to 3.02 µM) | not apparent |  |  |  |  |  |  |  |  |
| O=C(O)c1cn(C2CC2)c2c(Cl)c(-c3ccc(S(=O)(=O)NCCCC(F)(F)F)nc3)c(F)cc2c1=O [Example 29, 8-chloro-1-cyclopropyl-6-fluoro-4-oxo-7-(6-(N-(4,4,4-trifluorobutyl)sulfamoyl)pyridin-3-yl)-1,4-dihydroquinolin-3-carboxylic acid] | ≤ 0.1 µg/mL | ≤ 0.1 µg/mL | 1 to 8 µg/mL (≈ 1.83 to 14.6 µM) | ≤ 0.1 µg/mL | ≤ 0.1 µg/mL | huge difference | ≤ 1 µg/mL | ≤ 1 µg/mL | 78.09% | 81.21% | good antibacterial effect | certain bleeding symptom in body surface appeared | significant statistical difference from the control group | very significant antibacterial effect |
